According to ChEMBL document CHEMBL3751801, “Synthesis of novel polybrominated benzimidazole derivatives-potential CK2 inhibitors with anticancer and proapoptotic activity” (Bioorg Med Chem, 2016):

Key:
Assay type in all cases: functional
CCRF-CEM [1] = experiment: Cytotoxicity against human CCRF-CEM cells assessed as cell viability at 10 uM after 24 hrs by MTT assay; settings: read-out: Activity
CCRF-CEM [2] = experiment: Cytotoxicity against human CCRF-CEM cells assessed as cell viability at 20 uM after 24 hrs by MTT assay; settings: read-out: Activity
CCRF-CEM [3] = experiment: Cytotoxicity against human CCRF-CEM cells assessed as cell viability at 50 uM after 24 hrs by MTT assay; settings: read-out: Activity
MCF7 [4] = experiment: Cytotoxicity against human MCF7 cells assessed as cell viability at 10 uM after 24 hrs by MTT assay; settings: MCF7, 24 h, read-out: Activity
MCF7 [5] = experiment: Cytotoxicity against human MCF7 cells assessed as cell viability at 20 uM after 24 hrs by MTT assay; settings: MCF7, 24 h, read-out: Activity
MCF7 [6] = experiment: Cytotoxicity against human MCF7 cells assessed as cell viability at 50 uM after 24 hrs by MTT assay; settings: MCF7, 24 h, read-out: Activity
CCRF-CEM [7] = experiment: Induction of apoptosis in human CCRF-CEM cells assessed as viable cells at 10 uM after 24 hrs by annexinV and propidium iodide staining based FACS analysis (reference value: 96.4 +/- 1.2%); settings: read-out: Activity
CCRF-CEM [8] = experiment: Induction of apoptosis in human CCRF-CEM cells assessed as viable cells at 50 uM after 24 hrs by annexinV and propidium iodide staining based FACS analysis (reference value: 96.4 +/- 1.2%); settings: read-out: Activity
CCRF-CEM [9] = experiment: Induction of apoptosis in human CCRF-CEM cells assessed as early apoptotic cells at 10 uM after 24 hrs by annexinV and propidium iodide staining based FACS analysis (reference value: 1.5 +/- 0.8%)
CCRF-CEM [10] = experiment: Induction of apoptosis in human CCRF-CEM cells assessed as early apoptotic cells at 50 uM after 24 hrs by annexinV and propidium iodide staining based FACS analysis (reference value: 1.5 +/- 0.8%)
CCRF-CEM [11] = experiment: Induction of apoptosis in human CCRF-CEM cells assessed as late apoptotic cells at 10 uM after 24 hrs by annexinV and propidium iodide staining based FACS analysis (reference value: 1.9 +/- 0.5%)
CCRF-CEM [12] = experiment: Induction of apoptosis in human CCRF-CEM cells assessed as late apoptotic cells at 50 uM after 24 hrs by annexinV and propidium iodide staining based FACS analysis (reference value: 1.9 +/- 0.5%)
CCRF-CEM [13] = experiment: Induction of apoptosis in human CCRF-CEM cells assessed as necrotic cells at 10 uM after 24 hrs by annexinV and propidium iodide staining based FACS analysis (reference value: 0.1 +/- 0.1%)
CCRF-CEM [14] = experiment: Induction of apoptosis in human CCRF-CEM cells assessed as necrotic cells at 50 uM after 24 hrs by annexinV and propidium iodide staining based FACS analysis (reference value: 0.1 +/- 0.1%)

Structure (SMILES)	viability at 10 µM (CCRF-CEM [1]) [%]	viability at 20 µM (CCRF-CEM [2]) [%]	viability at 50 µM (CCRF-CEM [3]) [%]	viability at 10 µM (MCF7 [4]) [%]	viability at 20 µM (MCF7 [5]) [%]	viability at 50 µM (MCF7 [6]) [%]	viability at 10 µM (CCRF-CEM [7]) [%]	viability at 50 µM (CCRF-CEM [8]) [%]	Activity (CCRF-CEM [9]) [%]	Activity (CCRF-CEM [10]) [%]	Activity (CCRF-CEM [11]) [%]	Activity (CCRF-CEM [12]) [%]	Activity (CCRF-CEM [13]) [%]	Activity (CCRF-CEM [14]) [%]
Cc1nc2c(Br)c(Br)c(Br)c(Br)c2n1CCCCC#N	92	61	55	109	110	42	93.5	30.2	3.6	39.9	2.9	29.3	0.1	0.6
N#CCCCCn1cnc2c(Br)c(Br)c(Br)c(Br)c21	98	70	1	102	99	18	93.6	14.3	3.2	39.9	3.1	44.9	0.1	0.9
N#CCn1cnc2c(Br)c(Br)c(Br)c(Br)c21	63	28	2	87	65	43	76.2	14.8	12.3	62.7	8.8	20.4	0.5	0.8
Cc1nc2c(Br)c(Br)c(Br)c(Br)c2n1CCCC#N	68	44	1	65	56	5	82.4	3.3	10.8	14.7	6.3	76.3	0.5	5.7
Cc1nc2c(Br)c(Br)c(Br)c(Br)c2n1CC#N	45	14	2	52	36	11	52	2.4	28.9	59.7	17.8	33.9	0.8	0.6
